Test results reported in US20230085307A1, “PYRIDAZINONE COMPOUND AND HERBICIDE” (NISSAN CHEMICAL CORPORATION, priority 2019, published 2023).

Assays:
[1] = test system: chickweed; assay: Test Example 5: herbicidal effect by foliage application, plastic box (Table 20, symbol P); type: in vivo, common chickweed (Stellaria media); settings: 320 g/ha, foliage application after 14-day growth, evaluated three weeks after application
Outline: (§1)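 Sow seeds spot-wise in sterilized diluvial soil; cover with ~1.5 cm soil. Grow 14 days in greenhouse, 25° C. to 30° C. Spray foliage with emulsion diluted to predetermined amount. Rate effect after 3 weeks.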

[2] = test system: southern crabgrass; assay: Test Example 4: herbicidal effect by soil treatment (Table 19, symbol F); type: in vivo, southern crabgrass (Digitaria ciliaris); settings: amount of applied herbicide 320 g/ha
Outline: (§2)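 Soil-surface application: an emulsion agent diluted with water to the predetermined dose is sprayed uniformly over seeds lying under roughly 1.5 cm of sterilized diluvial soil. Boxes stay in a greenhouse at 25° C. to 30° C. Three weeks later, each species is graded on previously defined criteria.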

[3] = test system: green foxtail; assay: Test Example 4: herbicidal effect by soil treatment (Table 19, symbol G); type: in vivo, green foxtail (Setaria viridis); settings: amount of applied herbicide 320 g/ha
Outline: as §2

[4] = test system: green foxtail; assay: Test Example 5: herbicidal effect by foliage application, plastic box (Table 20, symbol G); type: in vivo, green foxtail (Setaria viridis); settings: 320 g/ha, foliage application after 14-day growth, evaluated three weeks after application
Outline: as §1

[5] = test system: barnyard grass; assay: Test Example 3: herbicidal effect by foliage application, Wagner pot (Table 18, symbol H); type: in vivo, barnyard grass (Echinochloa crus-galli); settings: 320 g/ha
Outline: (§3)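 Plants were sown in alluvial soil held under 0.1–0.5 cm standing water and grown 14 days in a greenhouse at 25–30 °C. An emulsifiable formulation, water-diluted to the set dose, was then sprayed onto the foliage, and effects were scored three weeks later using previously defined criteria.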

[6] = test system: barnyard grass; assay: Test Example 4: herbicidal effect by soil treatment (Table 19, symbol H); type: in vivo, barnyard grass (Echinochloa crus-galli); settings: amount of applied herbicide 320 g/ha
Outline: as §2

[7] = test system: lambsquarters; assay: Test Example 4: herbicidal effect by soil treatment (Table 19, symbol O); type: in vivo, lambsquarters (Chenopodium album); settings: amount of applied herbicide 320 g/ha
Outline: as §2

[8] = test system: persian speedwell; assay: Test Example 5: herbicidal effect by foliage application, plastic box (Table 20, symbol R); type: in vivo, Persian speedwell (Veronica persica); settings: 320 g/ha, foliage application after 14-day growth, evaluated three weeks after application
Outline: as §1

[9] = test system: windgrass; assay: Test Example 5: herbicidal effect by foliage application, plastic box (Table 20, symbol L); type: in vivo, windgrass (Apera spica-venti); settings: 320 g/ha, foliage application after 14-day growth, evaluated three weeks after application
Outline: as §1

[10] = test system: lambsquarters; assay: Test Example 5: herbicidal effect by foliage application, plastic box (Table 20, symbol O); type: in vivo, lambsquarters (Chenopodium album); settings: 320 g/ha, foliage application after 14-day growth, evaluated three weeks after application
Outline: as §1

[11] = test system: Italian ryegrass; assay: Test Example 4: herbicidal effect by soil treatment (Table 19, symbol K); type: in vivo, Italian ryegrass (Lolium multiflorum); settings: amount of applied herbicide 320 g/ha
Outline: as §2

[12] = test system: wild oat; assay: Test Example 4: herbicidal effect by soil treatment (Table 19, symbol I); type: in vivo, wild oat (Avena fatua); settings: amount of applied herbicide 320 g/ha
Outline: as §2

[13] = test system: redroot pigweed; assay: Test Example 5: herbicidal effect by foliage application, plastic box (Table 20, symbol N); type: in vivo, redroot pigweed (Amaranthus retroflexus); settings: 320 g/ha, foliage application after 14-day growth, evaluated three weeks after application
Outline: as §1

[14] = test system: redroot pigweed; assay: Test Example 4: herbicidal effect by soil treatment (Table 19, symbol N); type: in vivo, redroot pigweed (Amaranthus retroflexus); settings: amount of applied herbicide 320 g/ha
Outline: as §2

[15] = test system: rice flat sedge; assay: Test Example 3: herbicidal effect by foliage application, Wagner pot (Table 18, symbol E); type: in vivo, rice flat sedge (Cyperus iria); settings: 320 g/ha
Outline: as §3

[16] = test system: windgrass; assay: Test Example 4: herbicidal effect by soil treatment (Table 19, symbol L); type: in vivo, windgrass (Apera spica-venti); settings: amount of applied herbicide 320 g/ha
Outline: as §2

[17] = test system: persian speedwell; assay: Test Example 4: herbicidal effect by soil treatment (Table 19, symbol R); type: in vivo, Persian speedwell (Veronica persica); settings: amount of applied herbicide 320 g/ha
Outline: as §2

[18] = test system: blackgrass; assay: Test Example 5: herbicidal effect by foliage application, plastic box (Table 20, symbol J); type: in vivo, blackgrass (Alopecurus myosuroides); settings: 320 g/ha, foliage application after 14-day growth, evaluated three weeks after application
Outline: as §1

[19] = test system: Italian ryegrass; assay: Test Example 5: herbicidal effect by foliage application, plastic box (Table 20, symbol K); type: in vivo, Italian ryegrass (Lolium multiflorum); settings: 320 g/ha, foliage application after 14-day growth, evaluated three weeks after application
Outline: as §1

[20] = test system: wild oat; assay: Test Example 5: herbicidal effect by foliage application, plastic box (Table 20, symbol I); type: in vivo, wild oat (Avena fatua); settings: 320 g/ha, foliage application after 14-day growth, evaluated three weeks after application
Outline: as §1

[21] = test system: Chinese sprangletop; assay: Test Example 3: herbicidal effect by foliage application, Wagner pot (Table 18, symbol D); type: in vivo, chinese sprangletop (Leptochloa chinensis); settings: 320 g/ha
Outline: as §3

[22] = test system: blackgrass; assay: Test Example 4: herbicidal effect by soil treatment (Table 19, symbol J); type: in vivo, blackgrass (Alopecurus myosuroides); settings: amount of applied herbicide 320 g/ha
Outline: as §2

[23] = test system: velvetleaf; assay: Test Example 5: herbicidal effect by foliage application, plastic box (Table 20, symbol M); type: in vivo, velvetleaf (Abutilon theophrasti); settings: 320 g/ha, foliage application after 14-day growth, evaluated three weeks after application
Outline: as §1

[24] = test system: chickweed; assay: Test Example 4: herbicidal effect by soil treatment (Table 19, symbol P); type: in vivo, common chickweed (Stellaria media); settings: amount of applied herbicide 320 g/ha
Outline: as §2

[25] = test system: velvetleaf; assay: Test Example 4: herbicidal effect by soil treatment (Table 19, symbol M); type: in vivo, velvetleaf (Abutilon theophrasti); settings: amount of applied herbicide 320 g/ha
Outline: as §2

[26] = test system: southern crabgrass; assay: Test Example 5: herbicidal effect by foliage application, plastic box (Table 20, symbol F); type: in vivo, southern crabgrass (Digitaria ciliaris); settings: 320 g/ha, foliage application after 14-day growth, evaluated three weeks after application
Outline: as §1

[27] = test system: barnyard grass; assay: Test Example 5: herbicidal effect by foliage application, plastic box (Table 20, symbol H); type: in vivo, barnyard grass (Echinochloa crus-galli); settings: 320 g/ha, foliage application after 14-day growth, evaluated three weeks after application
Outline: as §1

SMILES | herbicidal effect on P: chickweed (evaluation grade 0-5) [1] | Herbicidal effect by soil treatment, F: southern crabgrass [2] | Herbicidal effect by soil treatment, G: green foxtail [3] | herbicidal effect on G: green foxtail (evaluation grade 0-5) [4] | herbicidal effect on barnyard grass (H) [5] | Herbicidal effect by soil treatment, H: barnyard grass [6] | Herbicidal effect by soil treatment, O: lambsquarters [7] | herbicidal effect on R: persian speedwell (evaluation grade 0-5) [8] | herbicidal effect on L: windgrass (evaluation grade 0-5) [9] | herbicidal effect on O: lambsquarters (evaluation grade 0-5) [10] | Herbicidal effect by soil treatment, K: Italian ryegrass [11] | Herbicidal effect by soil treatment, I: wild oat [12] | herbicidal effect on N: redroot pigweed (evaluation grade 0-5) [13] | Herbicidal effect by soil treatment, N: redroot pigweed [14] | herbicidal effect on rice flat sedge (E) [15] | Herbicidal effect by soil treatment, L: windgrass [16] | Herbicidal effect by soil treatment, R: persian speedwell [17] | herbicidal effect on J: blackgrass (evaluation grade 0-5) [18] | herbicidal effect on K: Italian ryegrass (evaluation grade 0-5) [19] | herbicidal effect on I: wild oat (evaluation grade 0-5) [20] | also measured
COc1ccccc1-c1sc2cc(S(C)(=O)=O)ccc2c1-c1c(O)c(C)nn(C)c1=O [3-165] | 5 (Herbicidal rate of 90% or more (almost completely withered)) | 5 (Herbicidal rate of 90% or more (almost completely withered)) | 3 (Herbicidal rate of 40% or more and less than 70%) | 4 (Herbicidal rate of 70% or more and less than 90%) | 5 (Herbicidal rate of 90% or more (almost completely withered)) | 3 (Herbicidal rate of 40% or more and less than 70%) | 0 (Herbicidal rate of 5% or less (almost no effect)) | 5 (Herbicidal rate of 90% or more (almost completely withered)) | 5 (Herbicidal rate of 90% or more (almost completely withered)) | 4 (Herbicidal rate of 70% or more and less than 90%) | 4 (Herbicidal rate of 70% or more and less than 90%) | 0 (Herbicidal rate of 5% or less (almost no effect)) | 4 (Herbicidal rate of 70% or more and less than 90%) | 4 (Herbicidal rate of 70% or more and less than 90%) | 3 (Herbicidal rate of 40% or more and less than 70%) | 3 (Herbicidal rate of 40% or more and less than 70%) | 5 (Herbicidal rate of 90% or more (almost completely withered)) | 4 (Herbicidal rate of 70% or more and less than 90%) | 4 (Herbicidal rate of 70% or more and less than 90%) | 4 (Herbicidal rate of 70% or more and less than 90%) | herbicidal effect on Chinese sprangletop (D) [21]: 4 (Herbicidal rate of 70% or more and less than 90%); Herbicidal effect by soil treatment, J: blackgrass [22]: 3 (Herbicidal rate of 40% or more and less than 70%); herbicidal effect on M: velvetleaf (evaluation grade 0-5) [23]: 5 (Herbicidal rate of 90% or more (almost completely withered)); Herbicidal effect by soil treatment, P: chickweed [24]: 5 (Herbicidal rate of 90% or more (almost completely withered)); Herbicidal effect by soil treatment, M: velvetleaf [25]: 1 (Herbicidal rate of 5% or more and less than 20%); herbicidal effect on F: southern crabgrass (evaluation grade 0-5) [26]: 5 (Herbicidal rate of 90% or more (almost completely withered)); herbicidal effect on H: barnyard grass (evaluation grade 0-5) [27]: 5 (Herbicidal rate of 90% or more (almost completely withered))
CCCC(=O)Oc1c(C)nn(C)c(=O)c1-c1c(-c2ccc(F)cc2OC)sc2c(F)cccc12 [4-012] | 5 (Herbicidal rate of 90% or more (almost completely withered)) | 0 (Herbicidal rate of 5% or less (almost no effect)) | 0 (Herbicidal rate of 5% or less (almost no effect)) | 5 (Herbicidal rate of 90% or more (almost completely withered)) | 5 (Herbicidal rate of 90% or more (almost completely withered)) | 0 (Herbicidal rate of 5% or less (almost no effect)) | 1 (Herbicidal rate of 5% or more and less than 20%) | 4 (Herbicidal rate of 70% or more and less than 90%) | 1 (Herbicidal rate of 5% or more and less than 20%) | 2 (Herbicidal rate of 20% or more and less than 40%) | 0 (Herbicidal rate of 5% or less (almost no effect)) | 0 (Herbicidal rate of 5% or less (almost no effect)) | 4 (Herbicidal rate of 70% or more and less than 90%) | 3 (Herbicidal rate of 40% or more and less than 70%) | 5 (Herbicidal rate of 90% or more (almost completely withered)) | 0 (Herbicidal rate of 5% or less (almost no effect)) | 0 (Herbicidal rate of 5% or less (almost no effect)) | 0 (Herbicidal rate of 5% or less (almost no effect)) | 3 (Herbicidal rate of 40% or more and less than 70%) | 0 (Herbicidal rate of 5% or less (almost no effect)) | herbicidal effect on Chinese sprangletop (D) [21]: 3 (Herbicidal rate of 40% or more and less than 70%); Herbicidal effect by soil treatment, J: blackgrass [22]: 0 (Herbicidal rate of 5% or less (almost no effect)); herbicidal effect on M: velvetleaf (evaluation grade 0-5) [23]: 3 (Herbicidal rate of 40% or more and less than 70%); Herbicidal effect by soil treatment, P: chickweed [24]: 0 (Herbicidal rate of 5% or less (almost no effect)); Herbicidal effect by soil treatment, M: velvetleaf [25]: 1 (Herbicidal rate of 5% or more and less than 20%); herbicidal effect on F: southern crabgrass (evaluation grade 0-5) [26]: 2 (Herbicidal rate of 20% or more and less than 40%); herbicidal effect on H: barnyard grass (evaluation grade 0-5) [27]: 3 (Herbicidal rate of 40% or more and less than 70%)
